In brackets after ≈: the same amount, converted by molar mass. Read-outs that look alike come from different tables or passages of the source. Marks after values point to notes of the source that are not given here.
Assays:
root knot nematode = test: Pre-plant incorporated (PPI) greenhouse test of root knot nematode on cucumber plants; type: in vivo; conditions: fourteen day pre-plant incorporated; for pest or weed control at 4000 g/ha: 336 h, 4 kg/ha, read-out: percent control (galling reduction), 4 kg/ha rate; for pest or weed control at 8000 g/ha: 8 ka/ha, read-out: percent control (galling reduction), 8 ka/ha rate
Text: The PPI test examines the effect of pre-incorporation of compounds in soil and longer aging to simulate in furrow methods of nematicide application in the field. The PPI test exposes compounds to a higher volume of soil and drying which can result in more severe soil binding. Compounds are also aged for longer periods which can lead to more extensive biotic and abiotic degradation further limiting activity.
The chemically treated soil (sandy soil mix) for all treatment days (e.g., 7 days, 14 days, 21 days) treatments is potted into their appropriate pots. On the same day the 7 day treatment pots are seeded. One week later eggs are applied and 14 days after egg application the test is harvested. The 14 day treatments are planted 7 days after the first planting. The 14 day planting and 7 day inoculation happen on the same day. One week later the 14 day treatments are inoculated with eggs. These are harvested 14 days after the inoculation. The 21 day treatments are planted 14 days after the first planting. The 14 day inoculation and 21 day planting are done on the same day. One week later the 21 day plants are inoculated with eggs. The 7 day treatment is harvested the same day as the 21 day inoculation. Fourteen days after inoculation the 21 day plants are harvested.
For each compound a stock is prepared using 4 mg material in 4 ml of acetone. The soil is mixed by placing 80 ml of field soil and 320 ml of sand in a plastic bag and mixing well. The formulation for treatment is done by adding 2.13 ml (8 kg/ha rate), 1.06 ml (4 kg/ha rate) or 0.53 ml (2 kg/ha rate) to a vial and raising it with 10 ml in 0.05% X100. Soil is then treated by adding the entire 10 ml to the 400 ml of mix in the bag. The treated soil is immediately mixed well in the sealed bag to distribute the compound evenly. Approximately 95 ml is used to fill each 2-inch square pot up to the top with some soil compression and flattening. For each compound and for the control treatments 4 pots are filled. All pots are watered until moist but with no run-out through the bottom.
The PPI test simulates 8, 4 and 2 kg/ha rates incorporated 15 cm deep in the field and is equivalent to the 2, 1 and 0.5 kg/ha drench application rates in the standard 2-inch pot cucumber greenhouse assay.

root knot nematode (RKN) [1] = test: RKN greenhouse soil assay on cucumber plants; type: in vivo; conditions: Radex emulsifiable concentrate formulation (6.25% active ingredient)
root knot nematode (RKN) [2] = test: RKN greenhouse soil assay on cucumber plants; type: in vivo; conditions: for percent control (galling reduction), Acetone 1 mg/kg: Acetone formulation (10% acetone in 0.05% Triton X 100)
Text: Cucumber seeds are planted in a sandy soil mixture in two inch square plastic pots. When the cotyledons are fully opened and just as the first leaf begins to emerge, usually 7 days after planting, chemistry for the 7 day treatment is applied. One week later the chemistry for the 0 day treatment is applied. Separate plants are used for each application. The plants are generally in the 1-2 leaf stage now. At least four hours after the chemistry application the pots are inoculated with root knot nematode (RKN) eggs. Plants are rated for galling 14 days after the egg inoculation.
(§1) One milligram of chemistry per four pots is equal to one kilogram per hectare of chemical. A standard test uses four replications. For rates above 2 kg/ha, the desired amount of chemical is weighed into a 30 ml vial (example: 8 kg/ha rate =8 mg chemical in 30 ml vial). The chemical is dissolved in 2 ml of appropriate solvent, generally acetone. For rates below 2 kg/ha, 2 milligrams of chemistry is weighed into the vial and dissolved in 2 ml of the solvent. The appropriate amount of chemical concentrate is then pipetted into a separate 30 ml vial and solvent is added to bring the volume to 2 ml (example 0.5 kg/ha=0.5 ml of concentrate+1.5 ml solvent). Each dissolved concentrate is then brought to a total of 20 milliliters using 0.05% Triton X 100 surfactant solution.
(§2) Pots to be treated are moist but not saturated. To each of four pots, five milliliters of the appropriate chemical solution is pipetted to the media surface making sure to avoid contact with the base of the plant. Immediately following chemical application, using a mist nozzle, the pot surface is wetted sufficiently to saturate the pot watering in the chemistry. The chemical application is done in the morning.
(§3) Nematode eggs, either SCN or RKN, are added to distilled water to create a concentration of 1000 vermiform eggs […]. At least four hours after chemical treatment the eggs are applied to the treated pots plus non-treated check plants. A small hole about 1 cm deep is punched into the pot surface. One milliliter of the nematode egg slurry is pipetted into the hole. Immediately afterwards the hole is gently covered. Watering of the test plants is then restricted to only water as needed to prevent wilt for a period of 24 hours. After the 24 hour restricted watering, normal sub-irrigation watering is done for the duration of the test.

[3] = tested on: Heterodera glycines (SCN); test: Seed treatment test of soybean cyst nematode on soybean; type: in vivo; conditions: Heterodera glycines, 672 h, read-out: percent cyst reduction relative to control blank treatment; for pest or weed control at 0.375 mg/g: 0.375 mg ai/gram seed; for pest or weed control at 1.5 mg/g: 1.5 mg ai/gram seed
Protocol: For a given concentration the chemical is dissolved in 500 ul of acetone and one gram of cucumber seed (RKN test) or soybean seed (SCN test) is added (e.g., 20 mg active ingredient in 500 ul acetone plus 1 gram of seed). The seed solutions are agitated until all seeds were thoroughly covered with the chemical solution. The acetone is then allowed to evaporate by air drying the seeds. The seeds are planted in 2-inch pots containing sandy soil and then the pots are inoculated with 1000 Meloidogyne incognita (RKN) or 1000 Heterodera glycines (SCN) eggs per pot three days after planting. Plants are rated for galling 14 days after egg inoculation for RKN or 28 days after egg inoculation for SCN.

Meloidogyne incognita = test: Summer field evaluation of pre-plant incorporated compounds on squash; type: in vivo; conditions: 4 kg/ha
Protocol: Test plots of 33 cm diameter holes were bored 41 cm deep into clay soil and filled with a mixture of 80% sand and 20% silt loam soil. Technical compound for each treatment was dissolved in 50 ml acetone containing 250 ul of Triton X-100 surfactant. This solution was added to 450 ml water and poured onto 95 liters of sand/soil mixture in a rotating drum mixer. While continuing to rotate the mixing drum 66 grams of chopped, galled, tomato roots was added and thoroughly distributed. The treated soil was sufficient to fill the top 15 cm of each of the 6 replicate plots, thus simulating a PPI treatment. The plots were then watered lightly and a mixture of M. incognita eggs and larvae were injected 5 cm deep at 5 points within the plot (100k eggs/larvae in 10m1 per plot). Three-week old squash (cv. Liberator III) with 1 fully expanded true leaf was planted 4 days after soil treatment, one per plot.

C. elegans = test: Three day C. elegans well assay; type: in vivo; conditions: Caenorhabditis elegans
Method in brief: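 Contact assay in wells: DMSO dilutions (4 ul from 100× stocks at 10 mg/ml) with bacterial feed in M9 buffer plus ampicillin and nystatin. L1 (starvation-arrested) or L4 worms added, shaken at 20° C. Scored at 4, 24, 48 and 72 hours.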

caspase-3 = test: Caspase-3 activity in H4IIE cells (DEVD-AMC); type: cell-based; conditions: rat hepatoma derived H4IIE cells, concentrations up to 300 μM
Protocol: To evaluate whether the compound classes of this invention are able to induce apoptosis, caspase-3 activity was determined after compound exposure in rat hepatoma derived H4IIE cells using a caspase substrate (DEVD, Asp-Glu-Val-Asp) labeled with a fluorescent molecule, 7-Amino-4-methylcoumarin (AMC). Caspase 3 cleaves the tetrapeptide between D and AMC, thus releasing the fluorogenic […] AMC. Following the test article exposure to cells in 96-well plates, medium was aspirated from plates and PBS added to each well. Plates were stored at −80° C. to lyse cells and store samples until further analysis. On the day of analysis, plates were removed from freezer and thawed. Caspase buffer with fluorescent substrate was added to each well and incubated at room temperature for one hour. AMC release was measured in a spectrofluorometer at an excitation wavelength of 360 nm and an emission wavelength of 460 nm. Values are expressed as relative fluorescent units (RFU).

[4] = tested on: soybean cyst nematode (SCN); test: SCN greenhouse sand assay on soybean plants; type: in vivo; conditions: Glycine max, 672 h, test d, read-out: percent control (cyst number reduction) relative to the control blank treatment; for pest or weed control at 100 g/ha: 0.1 kg/ha; for pest or weed control at 250 g/ha: 0.25 kg/ha
Text: Soybeans seeds are planted in 100% sand in two inch square plastic pots. Chemical treatment is done when the soybeans show the first trifoliate beginning to emerge about 10 to 12 days after planting. At least four hours after chemical application the nematode soybean cyst nematode (SCN) eggs are applied and 28 days after the egg inoculation the test is harvested.
as §1, §2, §3

[5] = 24 h, L1 larvae, one day of exposure, read-out: EC50 L1 1D
[6] = 48 h, L1 larvae, two days of exposure, read-out: EC50 L1 2D
[7] = 72 h, L1 larvae, three days of exposure, read-out: EC50 L1 3D

Compound | pest or weed control at 4000 g/ha (root knot nematode; test a) | percent control (galling reduction), 2 kg/ha rate (root knot nematode; test a) | pest or weed control at 8000 g/ha (root knot nematode; test a) | percent control (galling reduction), Radex 1 mg/kg (root knot nematode (RKN) [1]) | percent control (galling reduction), Acetone 1 mg/kg (root knot nematode (RKN) [2]) | EC50 (C. elegans; [5]) | EC50 (C. elegans; [6]) | EC50 (C. elegans; [7]) | other results
Brc1ccc(-c2noc(-c3ccco3)n2)cc1 [compound 5467] | 76% | 71^a percent | 100% | 88% | 73% | – | – | – | –
Fc1ccc(-c2noc(-c3cccs3)n2)cc1 [compound 5479] | 89% | 71^a percent | 100% | 96% | 91% | – | – | – | pest or weed control at 0.375 mg/g ([3]; test a): 67%; pest or weed control at 0.375 mg/g ([3]; test b): 69%; pest or weed control at 1.5 mg/g ([3]; test a): 88%; pest or weed control at 1.5 mg/g ([3]; test b): 83%
Clc1ccc(-c2noc(-c3ccco3)n2)cc1 [compound 5523] | 87% | 59^a percent | 99% | 86% | 86% | – | – | – | control of M. incognita by PPI application (Meloidogyne incognita): significant control
Clc1ccc(-c2noc(-c3cccs3)n2)cc1 [compound 5527] | 90% | 57^a percent | 96% | 80% | 91% | – | – | – | pest or weed control at 0.375 mg/g ([3]; test a): 43%; pest or weed control at 1.5 mg/g ([3]; test a): 71%
Cc1cc(Br)ccc1-c1noc(-c2ccco2)n1 [compound 5825] | 98% | 69^a percent | 96% | 96% | 96% | 0.4 µg/mL (≈ 1.31 µM) | 0.4 µg/mL (≈ 1.31 µM) | 0.4 µg/mL (≈ 1.31 µM) | percent control (galling reduction) relative to the control blank treatment (root knot nematode (RKN) [2]; 0 day treatment, 0.1 kg/ha, test a): 50^a percent; EC50 (C. elegans; 24 h, L4 larvae, one day of exposure, read-out: EC50 L4 1D): 1.6 µg/mL (≈ 5.24 µM); EC50 (C. elegans; 48 h, L4 larvae, two days of exposure, read-out: EC50 L4 2D): 1.6 µg/mL (≈ 5.24 µM); EC50 (C. elegans; 72 h, L4 larvae, three days, effects on the second generation larvae, read-out: EC50 L4 3D (F1)): 1.6 µg/mL (≈ 5.24 µM)
Fc1cc(Cl)ccc1-c1cnc(-c2cccs2)o1 [compound 5915] | – | – | – | – | – | 0.4 µg/mL (≈ 1.43 µM) | 0.4 µg/mL (≈ 1.43 µM) | 0.4 µg/mL (≈ 1.43 µM) | induction of caspase-3 (caspase-3): no induction of caspase-3; pest or weed control at 100 g/ha [4]: 44%; pest or weed control at 250 g/ha [4]: 74%; pest or weed control at 4000 g/ha (root knot nematode; test b): 70%; pest or weed control at 8000 g/ha (root knot nematode; test b): 99%
Cc1cc(Cl)ccc1-c1nsc(-c2ccco2)n1 [compound 5938] | – | – | – | – | – | 1.6 µg/mL (≈ 5.78 µM) | 1.6 µg/mL (≈ 5.78 µM) | 1.6 µg/mL (≈ 5.78 µM) | induction of caspase-3 (caspase-3): no induction of caspase-3; control of M. incognita by PPI application (Meloidogyne incognita): excellent control; pest or weed control at 100 g/ha [4]: 60%; pest or weed control at 250 g/ha [4]: 89%; pest or weed control at 4000 g/ha (root knot nematode; test b): 90%; pest or weed control at 8000 g/ha (root knot nematode; test b): 100%

Source: patent US20170367338A1, “COMPOSITIONS AND METHODS FOR IMPROVING AGRONOMIC CHARACTERISTICS OF PLANTS” (MONSANTO TECHNOLOGY LLC, priority 2014, published 2017)
